Results reported in PubChem BioAssay AID2060504 (Molecular Pharmacology Branch, DTP, NCI, 2025).

Test system: 636577-100-R-J1-PDC complex spheroid viability
Experiment: Anticancer human tumor 636577-100-R-J1-PDC patient-derived endometrial adenocarcinoma cell line growth inhibition [GQUAD]
Settings: for IC50: curve of first compound; for viability, T/C: stronger effect = lower value; active = viability on the fitted dose curve at most 10% of control; inactive = the rest
Outline: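 Multi-cell-type spheroids of tumor cells with HUVEC and mesenchymal stem cells, treated with drug combinations. Concentrations descend in half-log steps from near clinical Cmax, or from 10 microM where Cmax is unknown; viability read-out.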

[1] = second compound 0.0316 µM, first compound 0.0316 µM
[2] = second compound 0.0316 µM, first compound 0.1 µM
[3] = second compound 0.0316 µM, first compound 0.316 µM
[4] = second compound 0.0316 µM, first compound 1 µM
[5] = second compound 0.0316 µM, first compound 3.16 µM
[6] = second compound 0.0316 µM, first compound 10 µM
[7] = second compound 0.1 µM, first compound 0.0316 µM
[8] = second compound 0.1 µM, first compound 0.1 µM
[9] = second compound 0.1 µM, first compound 0.316 µM
[10] = second compound 0.1 µM, first compound 1 µM
[11] = second compound 0.1 µM, first compound 3.16 µM
[12] = second compound 0.1 µM, first compound 10 µM
[13] = second compound 0.316 µM, first compound 0.0316 µM
[14] = second compound 0.316 µM, first compound 0.1 µM
[15] = second compound 0.316 µM, first compound 0.316 µM
[16] = second compound 0.316 µM, first compound 1 µM
[17] = second compound 0.316 µM, first compound 3.16 µM
[18] = second compound 0.316 µM, first compound 10 µM
[19] = second compound 1 µM, first compound 0.0316 µM
[20] = second compound 1 µM, first compound 0.1 µM
[21] = second compound 1 µM, first compound 0.316 µM
[22] = second compound 1 µM, first compound 1 µM
[23] = second compound 1 µM, first compound 3.16 µM
[24] = second compound 1 µM, first compound 10 µM
[25] = second compound 3.16 µM, first compound 0.0316 µM
[26] = second compound 3.16 µM, first compound 0.1 µM
[27] = second compound 3.16 µM, first compound 0.316 µM
[28] = second compound 3.16 µM, first compound 1 µM
[29] = second compound 3.16 µM, first compound 3.16 µM
[30] = second compound 3.16 µM, first compound 10 µM
[31] = second compound 10 µM, first compound 0.0316 µM
[32] = second compound 10 µM, first compound 0.1 µM
[33] = second compound 10 µM, first compound 0.316 µM
[34] = second compound 10 µM, first compound 1 µM
[35] = second compound 10 µM, first compound 3.16 µM
[36] = second compound 10 µM, first compound 10 µM
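Also: viability read after seven days of drug exposure.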
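For viability, T/C in this document: luminescence signal used as a proxy for viable cells; 100% = DMSO vehicle control wells.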

CC1COCCN1c1cc(C2(O)CC3CCC(C2)O3)c2cnn(-c3ccn[nH]3)c2n1 (stereo unspecified) + Cc1cnc(CNC(=O)c2c(=O)c3ccc(N4CCCN(C)CC4)nc3n3c2sc2ccccc23)cn1
< 31.6 nM: IC50 (second compound 0.0316 µM) | IC50 (second compound 0.1 µM) | IC50 (second compound 0.316 µM) | IC50 (second compound 1 µM) | IC50 (second compound 3.16 µM) | IC50 (second compound 10 µM)
active: viability, T/C [4] 6.98% | viability, T/C [5] 2.58% | viability, T/C [6] 1.35% | viability, T/C [10] 6.8% | viability, T/C [11] 3.54% | viability, T/C [12] 1.24% | viability, T/C [16] 7.53% | viability, T/C [17] 3.12% | viability, T/C [18] 1.5% | viability, T/C [22] 6.81% | viability, T/C [23] 3.62% | viability, T/C [24] 1.25% | viability, T/C [28] 8.88% | viability, T/C [29] 3.75% | viability, T/C [30] 1.52% | viability, T/C [34] 6.65% | viability, T/C [35] 2.67% | viability, T/C [36] 0.14%
inactive: viability, T/C [1] 28.1% | viability, T/C [2] 18.8% | viability, T/C [3] 14.3% | viability, T/C [7] 21% | viability, T/C [8] 17.8% | viability, T/C [9] 15.2% | viability, T/C [13] 17.7% | viability, T/C [14] 16.3% | viability, T/C [15] 13.8% | viability, T/C [19] 15% | viability, T/C [20] 14.2% | viability, T/C [21] 11.4% | viability, T/C [25] 16.1% | viability, T/C [26] 16.7% | viability, T/C [27] 13.5% | viability, T/C [31] 15.6% | viability, T/C [32] 15.8% | viability, T/C [33] 14%

CC(C)(O)C1CCC(Nc2ccc3ncc(-c4cccc(C(F)(F)F)c4)n3n2)CC1 (stereo unspecified) + CN(C)c1ccc(Nc2c3ccc(NC(=O)CCN4CCCC4)cc3nc3cc(NC(=O)CCN4CCCC4)ccc23)cc1
inactive: viability, T/C [1] 107% | viability, T/C [2] 82% | viability, T/C [3] 104% | viability, T/C [4] 77.6% | viability, T/C [5] 34.6% | viability, T/C [6] 33.8% | viability, T/C [7] 83.9% | viability, T/C [8] 59.2% | viability, T/C [9] 109% | viability, T/C [10] 57.8% | viability, T/C [11] 30% | viability, T/C [12] 37.2% | viability, T/C [13] 69.3% | viability, T/C [14] 57.9% | viability, T/C [15] 96.7% | viability, T/C [16] 63.6% | viability, T/C [17] 30.6% | viability, T/C [18] 28.1% | viability, T/C [19] 77.2% | viability, T/C [20] 54.1% | viability, T/C [21] 66.5% | viability, T/C [22] 63.6% | viability, T/C [23] 26.4% | viability, T/C [24] 22.2% | viability, T/C [25] 41.3% | viability, T/C [26] 46.2% | viability, T/C [27] 40.6% | viability, T/C [28] 33.5% | viability, T/C [29] 15.8%
active: viability, T/C [30] 9.06% | viability, T/C [31] 5.85% | viability, T/C [32] 5.51% | viability, T/C [33] 5.56% | viability, T/C [34] 4.55% | viability, T/C [35] 1.2% | viability, T/C [36] 0.47%
< 31.6 nM: IC50 (second compound 3.16 µM) | IC50 (second compound 10 µM)
1520 nM: IC50 (second compound 1 µM)
1450 nM: IC50 (second compound 0.1 µM)
2080 nM: IC50 (second compound 0.0316 µM)
1580 nM: IC50 (second compound 0.316 µM)

CC(C)(O)C1CCC(Nc2ccc3ncc(-c4cccc(C(F)(F)F)c4)n3n2)CC1 (stereo unspecified) + Cc1cnc(CNC(=O)c2c(=O)c3ccc(N4CCCN(C)CC4)nc3n3c2sc2ccccc23)cn1
active: viability, T/C [35] 0.12% | viability, T/C [36] 0.11%
< 31.6 nM: IC50 (second compound 0.1 µM) | IC50 (second compound 0.316 µM) | IC50 (second compound 1 µM) | IC50 (second compound 3.16 µM) | IC50 (second compound 10 µM)
358 nM: IC50 (second compound 0.0316 µM)
inactive: viability, T/C [1] 52.8% | viability, T/C [2] 51.1% | viability, T/C [3] 51.6% | viability, T/C [4] 37.6% | viability, T/C [5] 22% | viability, T/C [6] 21.3% | viability, T/C [7] 28.9% | viability, T/C [8] 32.1% | viability, T/C [9] 32.7% | viability, T/C [10] 29.3% | viability, T/C [11] 16.6% | viability, T/C [12] 18.6% | viability, T/C [13] 25.3% | viability, T/C [14] 28.4% | viability, T/C [15] 27.2% | viability, T/C [16] 24.4% | viability, T/C [17] 18.2% | viability, T/C [18] 16% | viability, T/C [19] 17.9% | viability, T/C [20] 27.1% | viability, T/C [21] 25.6% | viability, T/C [22] 22.4% | viability, T/C [23] 18.7% | viability, T/C [24] 13.9% | viability, T/C [25] 19.7% | viability, T/C [26] 22.3% | viability, T/C [27] 25.1% | viability, T/C [28] 23.3% | viability, T/C [29] 12.7% | viability, T/C [30] 7.93% | viability, T/C [31] 19.2% | viability, T/C [32] 24.1% | viability, T/C [33] 24.4% | viability, T/C [34] 21.3%
